According to US10105357B2, “Indication of antibiotic drugs for preparation of cancer inhibition pharmaceutical composition” (LAUNX BIOMEDICAL CO., LTD., priority 2014, dated 2018):
Where two headings read alike, the source gives them in different places.

What was measured:
Type in all cases: cell-based, human
[1] = system: SAS (Tongue squamous cell carcinoma); assay: Cell viability analysis, tongue cancer SAS; conditions: Homo sapiens, 72 h, read-out: The results of antibiotic drug inhibiting cancer cell lines (cell viability analysis), SAS
[2] = system: HL-60 (Acute Promyelocytic Leukemia); assay: Cell viability analysis, leukemia HL-60; conditions: Homo sapiens, HL-60, 72 h, read-out: cell viability (survival rate), HL-60, drug 10 μM, 72 hours, WST-1, OD450 nm
[3] = system: HI650 (Lung Adenocarcinoma); assay: Cell viability analysis, lung cancer HI650; conditions: Homo sapiens, NCI-H1650, 72 h
BxPC-3 = assay: Cell viability analysis, pancreatic cancer BxPC-3; conditions: Homo sapiens, BXPC-3, 72 h, read-out: The results of antibiotic drug inhibiting cancer cell lines (cell viability analysis), BxPC-3
[4] = system: 786-O (Renal adenocarcinoma); assay: Cell viability analysis, renal cancer 786-O; conditions: Homo sapiens, 786-0, 72 h, read-out: The results of antibiotic drug inhibiting cancer cell lines (cell viability analysis), 786-O
[5] = system: MKN-45 (Gastric Adenocarcinoma); assay: Cell viability analysis, gastric cancer MKN-45; conditions: Homo sapiens, MKN-45, 72 h
[6] = system: MCF7 (Mammary Gland, Adenocarcinoma); assay: Cell viability analysis, breast cancer MCF7; conditions: Homo sapiens, MCF7, 72 h
[7] = system: HeLa (Cervix Adenocarcinoma); assay: Cell viability analysis, cervical cancer HeLa; conditions: Homo sapiens, HeLa, 72 h
[8] = system: C-33A (Cervical carcinoma); assay: Cell viability analysis, cervical cancer C-33A; conditions: Homo sapiens, C-33-A, 72 h, read-out: The results of antibiotic drug inhibiting cancer cell lines (cell viability analysis), C-33A
TOV-21G = assay: Cell viability analysis, ovarian cancer TOV-21G; conditions: Homo sapiens, TOV21G, 72 h, read-out: The results of antibiotic drug inhibiting cancer cell lines (cell viability analysis), TOV-21G
[9] = system: A375 (Amelanotic Melanoma); assay: Cell viability analysis, skin cancer A375; conditions: Homo sapiens, A-375, 72 h
[10] = system: A549 (Lung Adenocarcinoma); assay: Cell viability analysis, lung cancer A549; conditions: Homo sapiens, A549, 72 h
[11] = system: Hep3B (hepatocellular carcinoma); assay: Cell viability analysis, hepatic cancer Hep3B; conditions: Homo sapiens, Hep3B, 72 h, read-out: The results of antibiotic drug inhibiting cancer cell lines (cell viability analysis), Hep3B
[12] = system: BCC (basal cell carcinoma); assay: Cell viability analysis, skin cancer BCC; conditions: Homo sapiens, 72 h, read-out: The results of antibiotic drug inhibiting cancer cell lines (cell viability analysis), BCC
[13] = system: AGS (Gastric Adenocarcinoma); assay: Cell viability analysis, gastric cancer AGS; conditions: Homo sapiens, 72 h
AsPC-1 = assay: Cell viability analysis, pancreatic cancer AsPC-1; conditions: Homo sapiens, ASPC1, 72 h, read-out: The results of antibiotic drug inhibiting cancer cell lines (cell viability analysis), AsPC-1
U-2OS = assay: Cell viability analysis, osteosarcoma U-2OS; conditions: Homo sapiens, U2OS, 72 h, read-out: The results of antibiotic drug inhibiting cancer cell lines (cell viability analysis), U2OS
T24 = assay: Cell viability analysis, bladder cancer T24; conditions: Homo sapiens, T-24, 72 h, read-out: The results of antibiotic drug inhibiting cancer cell lines (cell viability analysis), T24
[14] = system: PC3 (p53−) (Prostate Adenocarcinoma); assay: Cell viability analysis, prostate cancer PC3; conditions: Homo sapiens, 72 h
cancer cell lines = assay: Cell viability analysis (WST-1) on cancer cell lines; conditions: drug 10 μM, 72 hours, WST-1; Table 3
[15] = system: MDA-MB-231 (Mammary Gland, Adenocarcinoma); assay: Cell viability analysis, breast cancer MDA-MB-231; conditions: Homo sapiens, MDA-MB-231, 72 h, read-out: The results of antibiotic drug inhibiting cancer cell lines (cell viability analysis), MDA-MB231
[16] = system: HepG2 (Hepatocellular Carcinoma); assay: Cell viability analysis, hepatic cancer HepG2; conditions: Homo sapiens, HepG2, 72 h
NIH: OVCAR-3 = assay: Cell viability analysis, ovarian cancer NIH: OVCAR-3; conditions: Homo sapiens, OVCAR-3, 72 h, read-out: The results of antibiotic drug inhibiting cancer cell lines (cell viability analysis), NIH-OVCAR-3
[17] = system: TSGH-8301 (Urinary Bladder Carcinoma); assay: Cell viability analysis, bladder cancer TSGH-8301; conditions: Homo sapiens, 72 h
[18] = system: LoVo (Colorectal Adenocarcinoma); assay: Cell viability analysis, colon cancer LoVo; conditions: Homo sapiens, LoVo, 72 h
[19] = read-out: The results of antibiotic drug inhibiting cancer cell lines (cell viability analysis), H1650, H1650, repeated experiment
[20] = read-out: The results of antibiotic drug inhibiting cancer cell lines (cell viability analysis), MKN-45, MKN-45, repeated experiment
[21] = read-out: cell viability (survival rate), MKN-45, drug 10 μM, 72 hours, WST-1, OD450 nm
[22] = read-out: The results of antibiotic drug inhibiting cancer cell lines (cell viability analysis), MCF-7, MCF-7, repeated experiment
[23] = read-out: cell viability (survival rate), MCF7, drug 10 μM, 72 hours, WST-1, OD450 nm
[24] = read-out: The results of antibiotic drug inhibiting cancer cell lines (cell viability analysis), HeLa, repeated experiment
[25] = read-out: cell viability (survival rate), HeLa, drug 10 μM, 72 hours, WST-1, OD450 nm
[26] = read-out: The results of antibiotic drug inhibiting cancer cell lines (cell viability analysis), A375, A375, repeated experiment
[27] = read-out: cell viability (survival rate), A375, drug 10 μM, 72 hours, WST-1, OD450 nm
[28] = read-out: The results of antibiotic drug inhibiting cancer cell lines (cell viability analysis), A549, A549, repeated experiment
[29] = read-out: cell viability (survival rate), A549, drug 10 μM, 72 hours, WST-1, OD450 nm
[30] = read-out: The results of antibiotic drug inhibiting cancer cell lines (cell viability analysis), AGS, repeated experiment
[31] = read-out: cell viability (survival rate), AGS, drug 10 μM, 72 hours, WST-1, OD450 nm
[32] = read-out: The results of antibiotic drug inhibiting cancer cell lines (cell viability analysis), PC-3, PC-3, repeated experiment
[33] = read-out: cell viability (survival rate), PC3, drug 10 μM, 72 hours, WST-1, OD450 nm
[34] = read-out: The results of antibiotic drug inhibiting cancer cell lines (cell viability analysis), HepG2, HepG2, repeated experiment
[35] = read-out: cell viability (survival rate), HepG2, drug 10 μM, 72 hours, WST-1, OD450 nm
[36] = read-out: The results of antibiotic drug inhibiting cancer cell lines (cell viability analysis), TSGH-8301, TSGH-8301, repeated experiment
[37] = read-out: cell viability (survival rate), TSGH, drug 10 μM, 72 hours, WST-1, OD450 nm

Compound | viability at 10 µM [1] [%] | viability at 10 µM [2] [%] | viability at 10 µM [3, 19] [%] | viability at 10 µM (BxPC-3) [%] | viability at 10 µM [4] [%] | viability at 10 µM [5, 20] [%] | viability at 10 µM [5, 21] [%] | viability at 10 µM [6, 22] [%] | viability at 10 µM [6, 23] [%] | viability at 10 µM [7, 24] [%] | viability at 10 µM [7, 25] [%] | viability at 10 µM [8] [%] | viability at 10 µM (TOV-21G) [%] | viability at 10 µM [9, 26] [%] | viability at 10 µM [9, 27] [%] | viability at 10 µM [10, 28] [%] | viability at 10 µM [10, 29] [%] | viability at 10 µM [11] [%] | viability at 10 µM [12] [%] | viability at 10 µM [13, 30] [%] | other results
CO[C@H]1/C=C/O[C@@]2(C)Oc3c(C)c(O)c4c(O)c(c5c(nc6cc(C)ccn65)c4c3C2=O)NC(=O)/C(C)=C\C=C\[C@H](C)[C@H](O)[C@@H](C)[C@@H](O)[C@@H](C)[C@H](OC(C)=O)[C@@H]1C [Rifaximin (Xifaxan), Rifaximin] | 69.8 | 100 | 69.5 | 89 | 87.6 | 93.5 | 52.7 | 89.9 | 40.1 | 106 | 54 | 107 | 88 | 98.2 | 59.5 | 108 | 35.1 | 110 | 81.8 | 98.1 | viability at 10 µM ([3]; read-out: cell viability (survival rate), H1650, drug 10 μM, 72 hours, WST-1, OD450 nm): 82.4%; viability at 10 µM [13, 31]: 93.2%; viability at 10 µM (AsPC-1): 71.2%; viability at 10 µM (U-2OS): 72.9%; viability at 10 µM (T24): 96.8%; viability at 10 µM [14, 32]: 95.3%; viability at 10 µM [14, 33]: 67.1%; inhibition effect on different cancer cell lines (cancer cell lines): significant inhibition effect; viability at 10 µM [15]: 98.7%; viability at 10 µM [16, 34]: 115%; viability at 10 µM [16, 35]: 102%; viability at 10 µM (NIH: OVCAR-3): 100%; viability at 10 µM [17, 36]: 114%; viability at 10 µM [17, 37]: 61.3%
CO[C@H]1/C=C/O[C@@]2(C)Oc3c(C)c(O)c4c(O)c(c(/C=N/N5CCN(C6CCCC6)CC5)c(O)c4c3C2=O)NC(=O)/C(C)=C\C=C\[C@H](C)[C@H](O)[C@@H](C)[C@@H](O)[C@@H](C)[C@H](OC(C)=O)[C@@H]1C [Rifapentine (Priftin), Rifapentine] | 85.4 | 99.1 | 69 | 74 | 85.9 | 98.6 | 58.6 | 84.1 | 46.2 | 104 | 56.5 | 91.7 | 79.7 | 98.2 | 77.7 | 87.4 | 47.4 | 110 | 85.7 | 76.4 | viability at 10 µM ([18]; read-out: The results of antibiotic drug inhibiting cancer cell lines (cell viability analysis), LoVo, repeated experiment): 93.5%; viability at 10 µM ([18]; read-out: cell viability (survival rate), LoVo, drug 10 μM, 72 hours, WST-1, OD450 nm): 92.3%; viability at 10 µM [13, 31]: 63.7%; viability at 10 µM (AsPC-1): 78.2%; viability at 10 µM (U-2OS): 87.2%; viability at 10 µM (T24): 86.3%; viability at 10 µM [14, 32]: 98.4%; viability at 10 µM [14, 33]: 99.1%; inhibition effect on different cancer cell lines (cancer cell lines): significant inhibition effect; viability at 10 µM [15]: 93.3%; viability at 10 µM [16, 34]: 112%; viability at 10 µM [16, 35]: 102%; viability at 10 µM (NIH: OVCAR-3): 104%; viability at 10 µM [17, 36]: 94.7%; viability at 10 µM [17, 37]: 99.2%
